{"source": "patent US9492471B2", "about": "“Methods of treating a disease or disorder associated with Bruton'S Tyrosine Kinase” (Celgene Avilomics Research, Inc., priority 2013, dated 2016)", "assay_in_all_cases": "HotSpot kinase profiling", "format_in_all_cases": "biochemical", "key": {"WNK3": {"biological_target": "T1, WNK3 (Homo sapiens, UniProt Q9BYP7)", "T1 construct": "purchased Reaction Biology Corp", "method_in_brief": "(§1)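 Percent inhibition, averaged when run more than once and referenced to a DMSO negative control, came from a radioactive filter-binding readout on P81 paper. Reactions of kinase with freshly made substrate and cofactors ran for 2 h at room temperature.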"}, "DAPK2": {"biological_target": "T2, DAPK2 (Homo sapiens, UniProt Q9UIK4)", "T2 construct": "purchased Reaction Biology Corp", "T2 sequence (Q9UIK4 whole entry)": "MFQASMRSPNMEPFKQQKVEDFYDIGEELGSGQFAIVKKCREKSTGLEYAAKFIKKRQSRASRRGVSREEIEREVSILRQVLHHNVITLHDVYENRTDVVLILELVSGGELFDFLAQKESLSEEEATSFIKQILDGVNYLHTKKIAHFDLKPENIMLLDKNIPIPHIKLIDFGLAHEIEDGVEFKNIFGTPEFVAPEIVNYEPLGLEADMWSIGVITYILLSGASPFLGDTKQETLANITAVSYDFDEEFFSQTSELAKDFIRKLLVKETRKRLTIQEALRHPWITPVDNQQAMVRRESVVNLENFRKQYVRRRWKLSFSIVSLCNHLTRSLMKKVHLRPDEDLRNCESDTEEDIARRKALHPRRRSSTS", "method_in_brief": "as §1"}, "P38a/MAPK14": {"biological_target": "T3, P38a/MAPK14 (Homo sapiens, UniProt Q16539)", "T3 construct": "purchased Reaction Biology Corp", "T3 sequence (Q16539 whole entry)": "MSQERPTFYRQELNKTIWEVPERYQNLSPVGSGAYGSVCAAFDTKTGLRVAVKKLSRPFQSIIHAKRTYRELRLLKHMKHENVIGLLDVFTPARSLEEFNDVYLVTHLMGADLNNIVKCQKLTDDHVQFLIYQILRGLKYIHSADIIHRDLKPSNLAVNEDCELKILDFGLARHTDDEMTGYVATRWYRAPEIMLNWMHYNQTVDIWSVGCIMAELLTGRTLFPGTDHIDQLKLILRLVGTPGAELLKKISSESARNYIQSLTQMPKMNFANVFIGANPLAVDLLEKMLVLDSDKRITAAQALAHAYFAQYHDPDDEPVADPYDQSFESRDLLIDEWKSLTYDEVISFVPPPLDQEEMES", "method_in_brief": "as §1"}, "ITK": {"biological_target": "T4, ITK (Homo sapiens, UniProt Q08881)", "T4 construct": "purchased Reaction Biology Corp", "T4 sequence (Q08881 1-620)": "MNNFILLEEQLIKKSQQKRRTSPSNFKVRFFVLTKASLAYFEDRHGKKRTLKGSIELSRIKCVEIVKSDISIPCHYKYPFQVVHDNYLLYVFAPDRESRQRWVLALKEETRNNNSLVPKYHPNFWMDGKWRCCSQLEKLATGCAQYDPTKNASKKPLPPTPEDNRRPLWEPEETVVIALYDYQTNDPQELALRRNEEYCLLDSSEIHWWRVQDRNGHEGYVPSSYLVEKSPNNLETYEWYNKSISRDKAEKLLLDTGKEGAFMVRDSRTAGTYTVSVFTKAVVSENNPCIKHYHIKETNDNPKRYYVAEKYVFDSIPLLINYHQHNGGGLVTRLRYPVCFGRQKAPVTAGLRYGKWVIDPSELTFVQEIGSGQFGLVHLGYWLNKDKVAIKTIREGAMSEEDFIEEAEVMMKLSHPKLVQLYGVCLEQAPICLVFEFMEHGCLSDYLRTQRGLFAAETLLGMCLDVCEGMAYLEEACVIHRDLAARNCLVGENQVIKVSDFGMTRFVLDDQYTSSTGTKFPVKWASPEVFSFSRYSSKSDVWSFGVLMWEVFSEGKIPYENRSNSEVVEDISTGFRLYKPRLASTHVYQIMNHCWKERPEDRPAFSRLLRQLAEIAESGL", "method_in_brief": "as §1"}, "PDGFRb": {"biological_target": "T5, PDGFRb (Homo sapiens, UniProt P09619)", "T5 construct": "purchased Reaction Biology Corp", "T5 sequence (P09619 33-1106)": "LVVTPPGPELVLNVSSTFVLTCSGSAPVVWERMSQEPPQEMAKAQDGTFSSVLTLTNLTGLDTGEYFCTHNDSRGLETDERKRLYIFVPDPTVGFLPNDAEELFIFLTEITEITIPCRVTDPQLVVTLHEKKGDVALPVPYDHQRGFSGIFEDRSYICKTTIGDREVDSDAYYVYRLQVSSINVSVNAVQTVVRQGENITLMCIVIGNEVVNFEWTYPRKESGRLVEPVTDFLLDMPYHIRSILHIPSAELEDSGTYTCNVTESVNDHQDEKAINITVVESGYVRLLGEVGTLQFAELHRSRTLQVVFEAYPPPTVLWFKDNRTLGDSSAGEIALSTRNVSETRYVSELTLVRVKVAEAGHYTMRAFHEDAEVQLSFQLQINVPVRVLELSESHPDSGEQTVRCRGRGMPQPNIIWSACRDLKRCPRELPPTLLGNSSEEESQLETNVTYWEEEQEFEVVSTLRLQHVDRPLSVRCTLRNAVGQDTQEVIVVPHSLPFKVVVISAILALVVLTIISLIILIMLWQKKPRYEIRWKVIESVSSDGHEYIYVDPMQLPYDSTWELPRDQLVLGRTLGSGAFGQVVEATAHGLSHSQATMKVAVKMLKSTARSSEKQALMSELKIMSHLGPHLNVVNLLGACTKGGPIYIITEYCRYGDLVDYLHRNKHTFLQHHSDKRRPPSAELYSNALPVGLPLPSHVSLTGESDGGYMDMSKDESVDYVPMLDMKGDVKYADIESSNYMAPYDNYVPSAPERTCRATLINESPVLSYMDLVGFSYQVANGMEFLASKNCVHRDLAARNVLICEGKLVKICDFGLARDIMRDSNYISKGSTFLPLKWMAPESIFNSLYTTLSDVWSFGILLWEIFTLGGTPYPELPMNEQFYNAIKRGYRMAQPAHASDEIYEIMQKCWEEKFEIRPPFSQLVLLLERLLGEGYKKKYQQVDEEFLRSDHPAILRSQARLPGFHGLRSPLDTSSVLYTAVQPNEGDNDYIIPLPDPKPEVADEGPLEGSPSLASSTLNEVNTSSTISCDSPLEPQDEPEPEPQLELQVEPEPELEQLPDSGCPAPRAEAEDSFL", "method_in_brief": "as §1"}, "c-Kit": {"biological_target": "T6, c-Kit (Homo sapiens, UniProt P10721)", "T6 construct": "purchased Reaction Biology Corp", "method_in_brief": "as §1"}, "PKCepsilon": {"biological_target": "T7, PKCepsilon (Homo sapiens, UniProt Q02156)", "T7 construct": "purchased Reaction Biology Corp", "T7 sequence (Q02156 1-737)": "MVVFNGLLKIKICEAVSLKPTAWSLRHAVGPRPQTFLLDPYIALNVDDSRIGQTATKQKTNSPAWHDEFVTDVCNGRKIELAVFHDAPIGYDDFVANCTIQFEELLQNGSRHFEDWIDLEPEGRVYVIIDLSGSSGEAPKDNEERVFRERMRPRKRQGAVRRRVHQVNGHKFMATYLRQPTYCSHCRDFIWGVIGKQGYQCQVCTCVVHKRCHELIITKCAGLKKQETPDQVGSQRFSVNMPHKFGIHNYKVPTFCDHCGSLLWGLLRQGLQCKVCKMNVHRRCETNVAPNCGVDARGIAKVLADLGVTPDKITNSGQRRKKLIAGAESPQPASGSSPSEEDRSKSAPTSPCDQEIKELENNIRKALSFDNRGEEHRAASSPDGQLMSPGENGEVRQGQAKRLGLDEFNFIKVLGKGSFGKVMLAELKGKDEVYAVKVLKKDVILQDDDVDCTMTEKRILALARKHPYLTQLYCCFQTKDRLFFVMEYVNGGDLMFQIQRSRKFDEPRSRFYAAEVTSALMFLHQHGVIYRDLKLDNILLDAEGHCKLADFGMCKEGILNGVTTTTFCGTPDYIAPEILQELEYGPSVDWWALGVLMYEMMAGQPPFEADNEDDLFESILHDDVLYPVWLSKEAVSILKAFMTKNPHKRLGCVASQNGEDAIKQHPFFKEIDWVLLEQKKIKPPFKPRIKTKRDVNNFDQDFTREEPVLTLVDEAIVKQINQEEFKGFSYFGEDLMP", "method_in_brief": "as §1"}, "WNK2": {"biological_target": "T8, WNK2 (Homo sapiens, UniProt Q9Y3S1)", "T8 construct": "purchased Reaction Biology Corp", "T8 sequence (Q9Y3S1 whole entry)": "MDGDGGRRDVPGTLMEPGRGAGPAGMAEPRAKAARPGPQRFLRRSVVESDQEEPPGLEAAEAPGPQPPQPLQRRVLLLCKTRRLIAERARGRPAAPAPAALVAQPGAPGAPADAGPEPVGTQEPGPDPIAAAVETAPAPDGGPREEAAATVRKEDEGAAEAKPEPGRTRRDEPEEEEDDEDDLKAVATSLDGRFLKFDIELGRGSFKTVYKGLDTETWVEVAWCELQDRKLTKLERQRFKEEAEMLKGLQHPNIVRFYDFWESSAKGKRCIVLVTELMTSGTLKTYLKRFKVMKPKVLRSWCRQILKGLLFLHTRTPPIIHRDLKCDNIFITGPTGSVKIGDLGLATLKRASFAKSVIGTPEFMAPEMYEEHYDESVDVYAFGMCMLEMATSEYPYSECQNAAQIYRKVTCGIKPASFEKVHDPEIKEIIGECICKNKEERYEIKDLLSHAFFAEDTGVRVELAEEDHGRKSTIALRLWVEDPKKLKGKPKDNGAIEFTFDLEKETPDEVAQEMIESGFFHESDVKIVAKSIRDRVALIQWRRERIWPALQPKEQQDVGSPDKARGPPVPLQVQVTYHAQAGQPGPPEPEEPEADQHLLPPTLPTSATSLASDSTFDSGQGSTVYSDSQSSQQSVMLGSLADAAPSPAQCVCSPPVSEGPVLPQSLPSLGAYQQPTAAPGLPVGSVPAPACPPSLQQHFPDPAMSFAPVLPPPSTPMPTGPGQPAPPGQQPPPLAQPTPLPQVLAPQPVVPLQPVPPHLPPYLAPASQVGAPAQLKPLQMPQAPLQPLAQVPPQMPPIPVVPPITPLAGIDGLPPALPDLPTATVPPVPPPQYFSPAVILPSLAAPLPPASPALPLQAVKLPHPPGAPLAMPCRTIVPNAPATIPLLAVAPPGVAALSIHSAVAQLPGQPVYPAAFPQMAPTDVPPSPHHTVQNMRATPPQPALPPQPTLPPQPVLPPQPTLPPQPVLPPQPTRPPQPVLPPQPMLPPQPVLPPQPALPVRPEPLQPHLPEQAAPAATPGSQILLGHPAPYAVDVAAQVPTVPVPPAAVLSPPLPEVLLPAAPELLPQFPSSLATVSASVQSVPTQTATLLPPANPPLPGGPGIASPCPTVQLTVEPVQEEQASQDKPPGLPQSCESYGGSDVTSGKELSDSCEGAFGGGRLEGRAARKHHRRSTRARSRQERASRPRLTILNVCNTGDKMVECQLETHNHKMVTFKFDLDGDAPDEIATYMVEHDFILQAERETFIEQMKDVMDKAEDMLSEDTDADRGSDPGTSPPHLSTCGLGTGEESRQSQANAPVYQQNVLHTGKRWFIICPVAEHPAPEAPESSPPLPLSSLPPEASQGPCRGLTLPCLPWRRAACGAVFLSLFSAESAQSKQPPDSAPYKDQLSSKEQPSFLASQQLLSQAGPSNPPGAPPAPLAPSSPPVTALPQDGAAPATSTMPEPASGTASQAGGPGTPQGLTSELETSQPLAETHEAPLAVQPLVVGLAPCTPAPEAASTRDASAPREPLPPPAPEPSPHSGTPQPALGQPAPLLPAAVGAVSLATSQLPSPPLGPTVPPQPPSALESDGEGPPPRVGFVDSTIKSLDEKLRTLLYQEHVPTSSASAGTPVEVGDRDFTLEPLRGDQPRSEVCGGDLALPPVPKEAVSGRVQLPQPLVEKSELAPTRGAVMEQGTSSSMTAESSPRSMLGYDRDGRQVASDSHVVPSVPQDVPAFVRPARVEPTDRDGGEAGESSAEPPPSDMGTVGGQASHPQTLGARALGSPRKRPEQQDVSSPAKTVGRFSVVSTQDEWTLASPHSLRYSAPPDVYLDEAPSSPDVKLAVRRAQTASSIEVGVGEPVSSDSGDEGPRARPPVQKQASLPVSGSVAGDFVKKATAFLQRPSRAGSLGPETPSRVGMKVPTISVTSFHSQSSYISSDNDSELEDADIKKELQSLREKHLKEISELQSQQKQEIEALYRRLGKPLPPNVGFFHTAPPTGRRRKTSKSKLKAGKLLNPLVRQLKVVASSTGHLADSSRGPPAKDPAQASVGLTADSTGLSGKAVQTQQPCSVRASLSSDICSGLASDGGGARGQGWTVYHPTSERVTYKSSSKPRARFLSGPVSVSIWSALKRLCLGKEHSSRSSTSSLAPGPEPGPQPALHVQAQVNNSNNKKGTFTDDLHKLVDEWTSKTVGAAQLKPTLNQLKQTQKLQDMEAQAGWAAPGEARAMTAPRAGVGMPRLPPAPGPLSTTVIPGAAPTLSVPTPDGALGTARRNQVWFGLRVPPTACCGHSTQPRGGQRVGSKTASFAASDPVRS", "method_in_brief": "as §1"}, "MAPKAPK3": {"biological_target": "T9, MAPKAPK3 (Homo sapiens, UniProt Q16644)", "T9 construct": "purchased Reaction Biology Corp", "T9 sequence (Q16644 whole entry)": "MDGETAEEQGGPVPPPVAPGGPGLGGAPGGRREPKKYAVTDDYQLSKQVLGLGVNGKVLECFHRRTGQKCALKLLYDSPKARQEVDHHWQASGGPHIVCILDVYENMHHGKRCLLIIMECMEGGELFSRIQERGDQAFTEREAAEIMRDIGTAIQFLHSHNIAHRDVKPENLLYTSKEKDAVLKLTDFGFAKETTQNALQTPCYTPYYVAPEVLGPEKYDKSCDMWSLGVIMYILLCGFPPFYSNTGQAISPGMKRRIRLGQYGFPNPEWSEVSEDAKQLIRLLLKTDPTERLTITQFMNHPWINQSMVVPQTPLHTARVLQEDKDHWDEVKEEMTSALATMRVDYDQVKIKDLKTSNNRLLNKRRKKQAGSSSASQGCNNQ", "method_in_brief": "as §1"}, "[1]": {"settings": "read-out: % Enzyme Activity (relative to DMSO controls) Run 1"}, "[2]": {"settings": "read-out: % Enzyme Activity (relative to DMSO controls) Run 2"}}, "note": "Read-outs that look alike come from different tables or passages of the source."}
{"molecule": "C=CC(=O)Nc1cccc(Nc2nc(Nc3ccc(OCCOC)c(F)c3)ncc2F)c1", "note": "[Compound 2]", "values": [{"measurement": "inhibition at 3 µM", "setting": "WNK3", "result": 8.34, "unit": "%"}, {"measurement": "remaining activity at 3 µM", "setting": "WNK3; [1]", "result": 91.3, "unit": "%"}, {"measurement": "remaining activity at 3 µM", "setting": "WNK3; [2]", "result": 92, "unit": "%"}, {"measurement": "inhibition at 3 µM", "setting": "DAPK2", "result": -9.89, "unit": "%"}, {"measurement": "remaining activity at 3 µM", "setting": "DAPK2; [1]", "result": 108, "unit": "%"}, {"measurement": "remaining activity at 3 µM", "setting": "DAPK2; [2]", "result": 112, "unit": "%"}, {"measurement": "inhibition at 3 µM", "setting": "P38a/MAPK14", "result": -6.68, "unit": "%"}, {"measurement": "remaining activity at 3 µM", "setting": "P38a/MAPK14; [1]", "result": 106, "unit": "%"}, {"measurement": "remaining activity at 3 µM", "setting": "P38a/MAPK14; [2]", "result": 108, "unit": "%"}, {"measurement": "inhibition at 3 µM", "setting": "ITK", "result": 92, "unit": "%"}, {"measurement": "remaining activity at 3 µM", "setting": "ITK; [1]", "result": 7.97, "unit": "%"}, {"measurement": "remaining activity at 3 µM", "setting": "ITK; [2]", "result": 7.95, "unit": "%"}, {"measurement": "inhibition at 3 µM", "setting": "PDGFRb", "result": 52.4, "unit": "%"}, {"measurement": "remaining activity at 3 µM", "setting": "PDGFRb; [1]", "result": 47.7, "unit": "%"}, {"measurement": "remaining activity at 3 µM", "setting": "PDGFRb; [2]", "result": 47.4, "unit": "%"}, {"measurement": "inhibition at 3 µM", "setting": "c-Kit", "result": 21.5, "unit": "%"}, {"measurement": "remaining activity at 3 µM", "setting": "c-Kit; [1]", "result": 77.5, "unit": "%"}, {"measurement": "remaining activity at 3 µM", "setting": "c-Kit; [2]", "result": 79.5, "unit": "%"}, {"measurement": "inhibition at 3 µM", "setting": "PKCepsilon", "result": 6.29, "unit": "%"}, {"measurement": "remaining activity at 3 µM", "setting": "PKCepsilon; [1]", "result": 93.2, "unit": "%"}, {"measurement": "remaining activity at 3 µM", "setting": "PKCepsilon; [2]", "result": 94.2, "unit": "%"}, {"measurement": "inhibition at 3 µM", "setting": "WNK2", "result": 6.19, "unit": "%"}, {"measurement": "remaining activity at 3 µM", "setting": "WNK2; [1]", "result": 92.3, "unit": "%"}, {"measurement": "remaining activity at 3 µM", "setting": "WNK2; [2]", "result": 95.3, "unit": "%"}, {"measurement": "inhibition at 3 µM", "setting": "MAPKAPK3", "result": -2.45, "unit": "%"}, {"measurement": "remaining activity at 3 µM", "setting": "MAPKAPK3; [1]", "result": 102, "unit": "%"}, {"measurement": "remaining activity at 3 µM", "setting": "MAPKAPK3; [2]", "result": 103, "unit": "%"}]}
